Counter-ions that a name gives are not always drawn.
Key:
[1] = molecular target: T1, HCV polymerase (NS5B) type 1a (Hepatitis C virus genotype 1a, UniProt P26664); experiment: Assay of enzyme (HCV polymerase) inhibitory activity, type 1a enzyme; assay type: biochemical, HCV type 1a (cloned from the blood of patients); settings: HCV polymerase inhibitory activity (IC50), 1a, type 1a enzyme 1.5 μg/ml, 25° C., 60 min
T1 construct: made in house; host or cells: Escherichia coli (by the 'similar method' of the 1b enzyme)
Procedure, shortened: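 Reactions ran 60 min at 25° C in 20 mM Tris-HCl pH 7.5, 5 mM MgCl2, 50 mM NaCl, holding genotype 1a NS5B (1.5 μg/ml, Δ47 C-terminus, 6His), substrate RNA 5 μg/ml, UTP 2 μM with tritiated UTP and other NTPs 50 μM. IC50 derived from incorporated radiolabel in filter-trapped RNA relative to uninhibited reaction.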

[2] = molecular target: T2, HCV polymerase (NS5B) type 1b (Hepatitis C virus genotype 1b, UniProt P26663); experiment: Assay of enzyme (HCV polymerase) inhibitory activity, type 1b enzyme; assay type: biochemical, HCV BK strain (type 1b); settings: HCV polymerase inhibitory activity (IC50), 1b, type 1b enzyme 0.5 μg/ml, 25° C., 60 min
T2 construct: a region encoding NS5B (J Virol 1991 March, 65(3), 1105-13, 544 amino acids after deletion of 47 amino acids on the C-terminal); 6xHis (C); made in house; host or cells: Escherichia coli
Procedure, shortened: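 IC50 derived from [3H]UTP incorporation into TCA-insoluble RNA, compared with and without test compound. Reaction (25 °C, 60 min, Tris pH 7.5, 5 mM MgCl2): E. coli-expressed 1b NS5B Δ47 with His tag at 0.5 μg/ml, 5 μg/ml run-off substrate RNA, ATP/GTP/CTP 50 μM, UTP 2 μM.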

## CC(C)c1ccc(CNC(=O)[C@H]2CN(c3ccc(C(=O)O)cn3)CCN2S(=O)(=O)c2ccc(C(F)(F)F)cc2)cc1 [Example 327, 6-[(R)-3-(4-isopropyl-benzylcarbamoyl)-4-(4-trifluoromethyl-benzenesulfonyl)-piperazin-1-yl]-nicotinic acid trifluoroacetate]
[1]
  IC50: < 100 nM
[2]
  IC50: < 100 nM

## CC(C)c1ccc(CNC(=O)[C@H]2CN(c3ncc(C(=O)O)s3)CCN2S(=O)(=O)c2ccc(OC(F)(F)F)cc2)cc1 [Example 328, 2-[(R)-3-(4-isopropyl-benzylcarbamoyl)-4-(4-trifluoromethoxy-benzenesulfonyl)-piperazin-1-yl]-thiazole-5-carboxylic acid]
[1]
  IC50: < 100 nM
[2]
  IC50: < 100 nM

## CCCc1ccc(S(=O)(=O)N2CCN(c3ncc(C(=O)O)s3)C[C@@H]2C(=O)NCc2ccc(C(C)C)cc2)cc1 [Example 329, 2-[(R)-3-(4-isopropyl-benzylcarbamoyl)-4-(4-propyl-benzenesulfonyl)-piperazin-1-yl]-thiazole-5-carboxylic acid]
[1]
  IC50: < 100 nM
[2]
  IC50: < 100 nM

## CCCc1ccc(S(=O)(=O)N2CCN(c3nc(C)c(C(=O)OC(C)(C)C)s3)C[C@@H]2C(=O)NCc2ccc(C(C)C)cc2C)cc1 [Example 330, 2-[(R)-3-(4-isopropyl-2-methyl-benzylcarbamoyl)-4-(4-propyl-benzenesulfonyl)-piperazin-1-yl]-4-methyl-thiazole-5-carboxylic acid tert-butyl ester]
[1]
  IC50: > 1000 nM
[2]
  IC50: 100 to 1000 nM

## CCCc1ccc(S(=O)(=O)N2CCN(c3nc(C)c(C(=O)O)s3)C[C@@H]2C(=O)NCc2ccc(C(C)C)cc2C)cc1 [Example 331, 2-[(R)-3-(4-isopropyl-2-methyl-benzylcarbamoyl)-4-(4-propyl-benzenesulfonyl)-piperazin-1-yl]-4-methyl-thiazole-5-carboxylic acid]
[1]
  IC50: < 100 nM
[2]
  IC50: < 100 nM

## CC(C)c1ccc(CNC(=O)[C@H]2CN(C(=O)Nc3nncs3)CCN2S(=O)(=O)c2ccc(C(F)(F)F)cc2)cc1 [Example 332, (R)-4-(4-trifluoromethyl-benzenesulfonyl)-piperazine-1,3-dicarboxylic acid 3-(4-isopropyl-benzylamide) 1-[1,3,4]thiadiazol-2-ylamide]
[1]
  IC50: 100 to 1000 nM
[2]
  IC50: < 100 nM

## CCCc1ccc(S(=O)(=O)N2CCN(c3nc(C)c(C(N)=O)s3)C[C@@H]2C(=O)NCc2ccc(C(C)C)cc2)cc1 [Example 333, (R)-4-(5-carbamoyl-4-methyl-thiazol-2-yl)-1-(4-propyl-benzenesulfonyl)-piperazine-2-carboxylic acid 4-isopropyl-benzylamide]
[1]
  IC50: < 100 nM
[2]
  IC50: < 100 nM

## CCOC(=O)c1nnc(NC(=O)N2CCN(S(=O)(=O)c3ccc(C(F)(F)F)cc3)[C@@H](C(=O)NCc3ccc(C(C)C)cc3)C2)o1 [Example 334, 5-{[(R)-3-(4-isopropyl-benzylcarbamoyl)-4-(4-trifluoromethyl-benzenesulfonyl)-piperazine-1-carbonyl]-amino}-[1,3,4]oxadiazole-2-carboxylic acid ethyl ester]
[1]
  IC50: > 1000 nM
[2]
  IC50: > 1000 nM

## Cc1cc(C(C)C)ccc1CNC(=O)[C@H]1CN(c2nc(C)c(C(=O)O)s2)CCN1S(=O)(=O)c1ccc(C(F)(F)F)cc1 [Example 335, 2-[(R)-3-(4-isopropyl-2-methyl-benzylcarbamoyl)-4-(4-trifluoromethyl-benzenesulfonyl)-piperazin-1-yl]-4-methyl-thiazole-5-carboxylic acid]
[1]
  IC50: < 100 nM
[2]
  IC50: < 100 nM

## Cc1nc(N2CCN(S(=O)(=O)c3ccc(C(F)(F)F)cc3)[C@@H](C(=O)NCc3ccc(C(C)C)cc3)C2)ncc1C(=O)OCc1ccccc1 [Example 336, 2-[(R)-3-(4-isopropyl-benzylcarbamoyl)-4-(4-trifluoromethyl-benzenesulfonyl)-piperazin-1-yl]-4-methyl-pyrimidine-5-carboxylic acid benzyl ester]
[1]
  IC50: > 1000 nM
[2]
  IC50: > 1000 nM

## COC(=O)c1cnc(N2CCN(S(=O)(=O)c3ccc(C(F)(F)F)cc3)[C@@H](C(=O)NCc3ccc(C(C)C)cc3)C2)nc1C [Example 337, 2-[(R)-3-(4-isopropyl-benzylcarbamoyl)-4-(4-trifluoromethyl-benzenesulfonyl)-piperazin-1-yl]-4-methyl-pyrimidine-5-carboxylic acid methyl ester]
[1]
  IC50: > 1000 nM
[2]
  IC50: 100 to 1000 nM

## Cc1nc(N2CCN(S(=O)(=O)c3ccc(C(F)(F)F)cc3)[C@@H](C(=O)NCc3ccc(C(C)C)cc3)C2)ncc1C(=O)O [Example 338, 2-[(R)-3-(4-isopropyl-benzylcarbamoyl)-4-(4-trifluoromethyl-benzenesulfonyl)-piperazin-1-yl]-4-methyl-pyrimidine-5-carboxylic acid]
[1]
  IC50: > 1000 nM
[2]
  IC50: 100 to 1000 nM

## CCCc1ccc(CNC(=O)[C@H]2CN(c3nc(C)c(C(=O)O)s3)CCN2S(=O)(=O)c2ccc(C(F)(F)F)cc2)cc1 [Example 339, 4-methyl-2-[(R)-3-(4-propyl-benzylcarbamoyl)-4-(4-trifluoromethyl-benzenesulfonyl)-piperazin-1-yl]-thiazole-5-carboxylic acid]
[1]
  IC50: < 100 nM
[2]
  IC50: < 100 nM

## Cc1nc(N2CCN(S(=O)(=O)c3ccc(OC(F)(F)F)cc3)[C@@H](C(=O)NCc3ccc(C(C)C)cc3)C2)sc1C(N)=O [Example 340, (R)-4-(5-carbamoyl-4-methyl-thiazol-2-yl)-1-(4-trifluoromethoxy-benzenesulfonyl)-piperazine-2-carboxylic acid 4-isopropyl-benzylamide]
[1]
  IC50: < 100 nM
[2]
  IC50: < 100 nM

## CCCc1ccc(CNC(=O)[C@H]2CN(c3nc(C)c(C(=O)O)s3)CCN2S(=O)(=O)c2ccc(OC(F)(F)F)cc2)c(C)c1 [Example 341, 4-methyl-2-[(R)-3-(2-methyl-4-propyl-benzylcarbamoyl)-4-(4-trifluoromethoxy-benzenesulfonyl)-piperazin-1-yl]-thiazole-5-carboxylic acid]
[1]
  IC50: < 100 nM
[2]
  IC50: < 100 nM

## CC(C)c1ccc(CNC(=O)[C@H]2CN(c3ncc(C(=O)O)cn3)CCN2S(=O)(=O)c2ccc(C(F)(F)F)cc2)cc1 [Example 342, 2-[(R)-3-(4-isopropyl-benzylcarbamoyl)-4-(4-trifluoromethyl-benzenesulfonyl)-piperazin-1-yl]-pyrimidine-5-carboxylic acid]
[1]
  IC50: > 1000 nM
[2]
  IC50: 100 to 1000 nM

## Cc1nc(N2CCN(S(=O)(=O)c3ccc(C(F)(F)F)cc3)[C@@H](C(=O)NCc3ccc(N(C)C)cc3)C2)sc1C(=O)O [Example 343, 2-[(R)-3-(4-dimethylamino-benzylcarbamoyl)-4-(4-trifluoromethyl-benzenesulfonyl)-piperazin-1-yl]-4-methyl-thiazole-5-carboxylic acid]
[1]
  IC50: < 100 nM
[2]
  IC50: < 100 nM

## Cc1nc(N2CCN(S(=O)(=O)c3ccc(C(C)C)cc3)[C@@H](C(=O)NCc3ccc(C(C)C)cc3)C2)sc1C(=O)O [Example 344, 2-[(R)-4-(4-isopropyl-benzenesulfonyl)-3-(4-isopropyl-benzylcarbamoyl)-piperazin-1-yl]-4-methyl-thiazole-5-carboxylic acid]
[1]
  IC50: < 100 nM
[2]
  IC50: < 100 nM

## CC(C)c1ccc(CNC(=O)[C@H]2CN(C3CCNC3=O)CCN2S(=O)(=O)c2ccc(C(F)(F)F)cc2)cc1 (stereo partly drawn) [Example 345, (R)-4-(2-oxo-pyrrolidin-3-yl)-1-(4-trifluoromethyl-benzenesulfonyl)-piperazine-2-carboxylic acid 4-isopropyl-benzylamide]
[1]
  IC50: > 1000 nM
[2]
  IC50: 100 to 1000 nM

## CN1CCN(CC(=O)N2CCN(S(=O)(=O)c3ccc(I)cc3)[C@@H](C(=O)NCc3ccc(N(C)C)cc3)C2)CC1 [Example 346, 1-(4-iodo-benzenesulfonyl)-4-[2-(4-methyl-piperazin-1-yl)-acetyl]-piperazine-2-carboxylic acid 4-dimethylamino-benzylamide]
[1]
  IC50: > 1000 nM
[2]
  IC50: > 1000 nM

## CC(C)c1ccc(CNC(=O)[C@H]2CN(C(=O)Nc3ccncc3)CCN2S(=O)(=O)c2ccc(C(F)(F)F)cc2)cc1 [Example 347, (R)-4-(4-trifluoromethyl-benzenesulfonyl)-piperazine-1,3-dicarboxylic acid 3-(4-isopropyl-benzylamide) 1-pyridin-4-ylamide]
[1]
  IC50: 100 to 1000 nM
[2]
  IC50: 100 to 1000 nM

## CC(C)c1ccc(CNC(=O)[C@H]2CN(C(=O)Nc3nnco3)CCN2S(=O)(=O)c2ccc(C(F)(F)F)cc2)cc1 [Example 348, (R)-4-(4-trifluoromethyl-benzenesulfonyl)-piperazine-1,3-dicarboxylic acid 3-(4-isopropyl-benzylamide) 1-[1,3,4]oxadiazol-2-ylamide]
[1]
  IC50: 100 to 1000 nM
[2]
  IC50: 100 to 1000 nM

## CC(C)c1ccc(CNC(=O)[C@H]2CN(c3cc(C(=O)O)ccn3)CCN2S(=O)(=O)c2ccc(C(F)(F)F)cc2)cc1 [Example 349, 2-[(R)-3-(4-isopropyl-benzylcarbamoyl)-4-(4-trifluoromethyl-benzenesulfonyl)-piperazin-1-yl]-isonicotinic acid trifluoroacetate]
[1]
  IC50: > 1000 nM
[2]
  IC50: 100 to 1000 nM

From patent US8017612B2, “Piperazine compound and use thereof as a HCV polymerase inhibitor” (priority 2006, dated 2011)
